Legend:
[1] = system: oat, wild; assay: Test C postemergence; assay type: in vivo, Avena fatua; settings: postemergence, 10 days
Method in brief: (§1)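 Seeds in loam–sand blend received preemergence directed soil spray of test chemicals in non-phytotoxic solvent with surfactant; postemergence treatment was applied at one- to two-leaf stage (2–10 cm). After 10 days in greenhouse, injury rated visually versus untreated controls, 0 (no effect) to 100 (complete control).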

[2] = system: rice; assay: Test D flooded paddy test; assay type: in vivo, Oryza sativa; settings: 250 g ai/ha, applied to paddy water, visual rating after 13 to 14 days, scale 0 to 100 (0 no effect, 100 complete control)
Method in brief: (§2)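 Seedlings reached the 2-leaf stage, then pots were flooded to 3 cm over the soil surface. Compound was applied into the water, depth was maintained, and plants stayed in the greenhouse 13 to 14 days before visual scoring (0–100) relative to controls.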

[3] = system: oat, wild; assay: Test C preemergence; assay type: in vivo, Avena fatua; settings: preemergence, 0 to 100 scale (0 no effect, 100 complete control)
Method in brief: as §1

[4] = system: corn; assay: Test C preemergence; assay type: in vivo, Zea mays; settings: preemergence, 0 to 100 scale (0 no effect, 100 complete control)
Method in brief: as §1

[5] = system: galium; assay: Test C postemergence; assay type: in vivo, Galium aparine; settings: postemergence, 10 days
Method in brief: as §1

[6] = system: soybean; assay: Test C postemergence; assay type: in vivo, Glycine max; settings: postemergence, 10 days
Method in brief: as §1

[7] = system: wheat; assay: Test C postemergence; assay type: in vivo, Triticum aestivum; settings: postemergence, 10 days
Method in brief: as §1

[8] = system: blackgrass; assay: Test C preemergence; assay type: in vivo, Alopecurus myosuroides; settings: preemergence, 0 to 100 scale (0 no effect, 100 complete control)
Method in brief: as §1

[9] = system: kochia; assay: Test C postemergence; assay type: in vivo, Bassia scoparia; settings: postemergence, 10 days
Method in brief: as §1

[10] = system: kochia; assay: Test C preemergence; assay type: in vivo, Bassia scoparia; settings: preemergence, 0 to 100 scale (0 no effect, 100 complete control)
Method in brief: as §1

[11] = system: barnyardgrass; assay: Test D flooded paddy test; assay type: in vivo, Echinochloa crus-galli; settings: 250 g ai/ha, applied to paddy water, visual rating after 13 to 14 days, scale 0 to 100 (0 no effect, 100 complete control)
Method in brief: as §2

[12] = system: corn; assay: Test C postemergence; assay type: in vivo, Zea mays; settings: postemergence, 10 days
Method in brief: as §1

[13] = system: foxtail, giant; assay: Test C preemergence; assay type: in vivo, Setaria faberi; settings: preemergence, 0 to 100 scale (0 no effect, 100 complete control)
Method in brief: as §1

[14] = system: ryegrass, Italian; assay: Test C postemergence; assay type: in vivo, Lolium multiflorum; settings: postemergence, 10 days
Method in brief: as §1

[15] = system: soybean; assay: Test C preemergence; assay type: in vivo, Glycine max; settings: preemergence, 0 to 100 scale (0 no effect, 100 complete control)
Method in brief: as §1

[16] = system: ducksalad; assay: Test D flooded paddy test; assay type: in vivo, Heteranthera limosa; settings: 250 g ai/ha, applied to paddy water, visual rating after 13 to 14 days, scale 0 to 100 (0 no effect, 100 complete control)
Method in brief: as §2

[17] = system: ragweed; assay: Test C preemergence; assay type: in vivo, Ambrosia artemisiifolia; settings: preemergence, 0 to 100 scale (0 no effect, 100 complete control)
Method in brief: as §1

[18] = system: pigweed, palmer; assay: Test C preemergence; assay type: in vivo, Amaranthus palmeri; settings: preemergence, 0 to 100 scale (0 no effect, 100 complete control)
Method in brief: as §1

[19] = system: ryegrass, Italian; assay: Test C preemergence; assay type: in vivo, Lolium multiflorum; settings: preemergence, 0 to 100 scale (0 no effect, 100 complete control)
Method in brief: as §1

[20] = system: goosegrass; assay: Test C preemergence; assay type: in vivo, Eleusine indica; settings: preemergence, 0 to 100 scale (0 no effect, 100 complete control)
Description: (§3) Seeds of plant species selected from barnyardgrass (Echinochloa crusgalli), blackgrass (Alopecurus myosuroides), corn (Zea mays), foxtail, giant (giant foxtail, Setaria faberi), green foxtail (Setaria viridis), goosegrass (Eleusine indica), kochia (Bassia scoparia), oat, wild (wild oat, Avena fatua), pigweed, palmer (palmer amaranth, palmer pigweed, Amaranthus palmeri), Pigweed, Redroot (redroot pigweed, Amaranthus retroflexus), ragweed (common ragweed, Ambrosia artemisiifolia), ryegrass, Italian ([…] ryegrass, Lolium multiflorum), soybean (Glycine max), and wheat (Triticum aestivum) were planted into a blend of loam soil and sand and treated preemergence with a directed soil spray using test chemicals formulated in a non-phytotoxic solvent mixture which included a surfactant. At the same time, plants selected from these crops and weed species and also galium (catchweed bedstraw, Galium aparine) and horseweed (Erigeron canadensis) were planted in pots containing the same blend of loam soil and sand and treated with postemergence applications of test chemicals formulated in the same manner. Plants ranged in height from 2 to 10 cm and were in the one- to two-leaf stage for the postemergence treatment. Treated plants and untreated controls were maintained in a greenhouse for 10 days, after which time all treated plants were compared to untreated controls and visually evaluated for injury. Plant response ratings, summarized in Table C, are based on a 0 to 100 scale where 0 is no effect and 100 is complete control. A dash (-) response means no test result.

[21] = system: ragweed; assay: Test C postemergence; assay type: in vivo, Ambrosia artemisiifolia; settings: postemergence, 10 days
Method in brief: as §1

[22] = system: sedge, umbrella; assay: Test D flooded paddy test; assay type: in vivo, Cyperus difformis; settings: 250 g ai/ha, applied to paddy water, visual rating after 13 to 14 days, scale 0 to 100 (0 no effect, 100 complete control)
Method in brief: as §2

[23] = system: blackgrass; assay: Test C postemergence; assay type: in vivo, Alopecurus myosuroides; settings: postemergence, 10 days
Method in brief: as §1

[24] = system: goosegrass; assay: Test C postemergence; assay type: in vivo, Eleusine indica; settings: postemergence, 10 days
Description: as §3

[25] = system: wheat; assay: Test C preemergence; assay type: in vivo, Triticum aestivum; settings: preemergence, 0 to 100 scale (0 no effect, 100 complete control)
Method in brief: as §1

[26] = system: foxtail, giant; assay: Test C postemergence; assay type: in vivo, Setaria faberi; settings: postemergence, 10 days
Method in brief: as §1

[27] = system: pigweed, palmer; assay: Test C postemergence; assay type: in vivo, Amaranthus palmeri; settings: postemergence, 10 days
Method in brief: as §1

[28] = 125 g ai/ha, 0 to 100 scale, 0 no effect, 100 complete control
[29] = 500 g ai/ha, 0 to 100 scale (0 no effect, 100 complete control)

Cc1cccc2c1O[C@@H](C)CN2C(=O)c1cccc(-n2cnc(-c3ccccc3)n2)c1 [Compound 283]
Plant response rating, Oat, Wild [1, 28]: 10 | Plant response rating, Oat, Wild [1, 29]: 10 | Plant response rating, Rice (Flood) [2]: 0 | Oat, Wild plant response rating ([3]; 500 g ai/ha): 10 | Oat, Wild plant response rating ([3]; Test C, 125 g ai/ha): 20 | Corn plant response rating ([4]; 500 g ai/ha): 0 | Corn plant response rating ([4]; Test C, 125 g ai/ha): 0 | Plant response rating, Galium [5, 28]: 50 | Plant response rating, Galium [5, 29]: 80 | Plant response rating, Soybean [6, 28]: 90 | Plant response rating, Soybean [6, 29]: 90 | Plant response rating, Wheat [7, 28]: 10 | Plant response rating, Wheat [7, 29]: 10 | Blackgrass plant response rating ([8]; 500 g ai/ha): 40 | Blackgrass plant response rating ([8]; Test C, 125 g ai/ha): 40 | Plant response rating, Kochia [9, 28]: 70 | Plant response rating, Kochia [9, 29]: 80 | Kochia plant response rating ([10]; 500 g ai/ha): 50 | Kochia plant response rating ([10]; Test C, 125 g ai/ha): 20 | Plant response rating, Barnyardgrass (Flood) [11]: 0 | Plant response rating, Corn [12, 28]: 20 | Plant response rating, Corn [12, 29]: 20 | Foxtail, Giant plant response rating ([13]; 500 g ai/ha): 90 | Foxtail, Giant plant response rating ([13]; Test C, 125 g ai/ha): 60 | Plant response rating, Ryegrass, Italian [14, 28]: 20 | Plant response rating, Ryegrass, Italian [14, 29]: 50 | Soybean plant response rating ([15]; 500 g ai/ha): 30 | Soybean plant response rating ([15]; Test C, 125 g ai/ha): 0 | Plant response rating, Ducksalad (Flood) [16]: 0 | Ragweed plant response rating ([17]; 500 g ai/ha): 0 | Ragweed plant response rating ([17]; Test C, 125 g ai/ha): 0 | Pigweed, Palmer plant response rating ([18]; 500 g ai/ha): 100 | Pigweed, Palmer plant response rating ([18]; Test C, 125 g ai/ha): 30 | Ryegrass, Italian plant response rating ([19]; 500 g ai/ha): 100 | Ryegrass, Italian plant response rating ([19]; Test C, 125 g ai/ha): 70 | Goosegrass plant response rating ([20]; 500 g ai/ha): 100 | Goosegrass plant response rating ([20]; Test C, 125 g ai/ha): 80 | Plant response rating, Ragweed [21, 28]: 10 | Plant response rating, Ragweed [21, 29]: 50 | Plant response rating, Sedge, Umbrella (Flood) [22]: 0 | Plant response rating, Blackgrass [23, 28]: 10 | Plant response rating, Blackgrass [23, 29]: 40 | Plant response rating, Goosegrass [24, 28]: 10 | Plant response rating, Goosegrass [24, 29]: 40 | Wheat plant response rating ([25]; 500 g ai/ha): 10 | Wheat plant response rating ([25]; Test C, 125 g ai/ha): 0 | Plant response rating, Foxtail, Giant [26, 28]: 20 | Plant response rating, Foxtail, Giant [26, 29]: 90 | Plant response rating, Pigweed, Palmer [27, 28]: 60 | Plant response rating, Pigweed, Palmer [27, 29]: 80

— patent US20260262643A1, “HERBICIDAL BENZOXAZINES” (FMC CORPORATION, priority 2022, published 2026)
